PMC4690157, “Sulfur Isotope Effects of Dissimilatory Sulfite Reductase” (Frontiers in Microbiology, 2015)

Assays:
[1] = biological target: T1, D. vulgaris DsrAB (Nitratidesulfovibrio vulgaris, UniProt P45574+P45575); experiment: sulfite loss over […] h by HPLC of monobromobimane derivatives; Michaelis-Menten fit; assay type: biochemical; conditions: H2 / [NiFe] hydrogenase / methyl viologen as electron donor system; 50 mM phosphate pH 7.1; anoxic; 20 or 31 °C (fractionation conditions)
T1 construct: gene dsvA; native, purified from D. vulgaris cells (Q-Sepharose); heterodimeric DsrAB with siroheme (desulfoviridin)

[2] = biological target: T2, A. fulgidus DsrAB (Archaeoglobus fulgidus, UniProt Q59109+Q59110); experiment: closed-system in vitro sulfite reduction; sulfite loss and product accumulation (fuchsin assay, cyanolysis); assay type: biochemical; conditions: 15 mM initial sulfite; 65 °C; pH 7.1; H2 / [NiFe] hydrogenase / methyl viologen as electron donor system
T2 construct: gene dsrA; native, purified from A. fulgidus cells; heterodimeric DsrAB with siroheme; free of DsrC
T2 sequence (Q59109 2-418): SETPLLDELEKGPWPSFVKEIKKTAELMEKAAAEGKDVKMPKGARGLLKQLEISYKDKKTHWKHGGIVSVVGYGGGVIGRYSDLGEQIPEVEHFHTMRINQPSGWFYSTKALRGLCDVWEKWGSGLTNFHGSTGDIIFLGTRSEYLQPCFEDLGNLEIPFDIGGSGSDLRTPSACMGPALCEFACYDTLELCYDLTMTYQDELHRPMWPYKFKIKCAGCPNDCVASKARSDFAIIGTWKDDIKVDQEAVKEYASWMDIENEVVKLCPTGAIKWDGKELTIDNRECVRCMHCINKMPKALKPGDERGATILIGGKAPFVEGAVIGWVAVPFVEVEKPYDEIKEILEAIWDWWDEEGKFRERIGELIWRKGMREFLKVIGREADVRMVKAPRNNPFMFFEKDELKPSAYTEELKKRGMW
T2 sequence (Q59110 whole entry): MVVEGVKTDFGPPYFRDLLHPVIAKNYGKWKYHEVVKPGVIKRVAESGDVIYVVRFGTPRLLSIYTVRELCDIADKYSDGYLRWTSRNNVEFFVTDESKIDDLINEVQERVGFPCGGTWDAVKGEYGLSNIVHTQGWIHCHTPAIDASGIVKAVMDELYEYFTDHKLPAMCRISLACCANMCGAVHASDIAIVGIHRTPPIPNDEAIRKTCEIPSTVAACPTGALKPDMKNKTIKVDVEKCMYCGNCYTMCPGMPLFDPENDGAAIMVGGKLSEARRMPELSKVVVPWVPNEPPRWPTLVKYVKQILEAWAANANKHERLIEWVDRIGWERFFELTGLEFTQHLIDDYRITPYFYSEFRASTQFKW

T1 sequence (P45574 2-437): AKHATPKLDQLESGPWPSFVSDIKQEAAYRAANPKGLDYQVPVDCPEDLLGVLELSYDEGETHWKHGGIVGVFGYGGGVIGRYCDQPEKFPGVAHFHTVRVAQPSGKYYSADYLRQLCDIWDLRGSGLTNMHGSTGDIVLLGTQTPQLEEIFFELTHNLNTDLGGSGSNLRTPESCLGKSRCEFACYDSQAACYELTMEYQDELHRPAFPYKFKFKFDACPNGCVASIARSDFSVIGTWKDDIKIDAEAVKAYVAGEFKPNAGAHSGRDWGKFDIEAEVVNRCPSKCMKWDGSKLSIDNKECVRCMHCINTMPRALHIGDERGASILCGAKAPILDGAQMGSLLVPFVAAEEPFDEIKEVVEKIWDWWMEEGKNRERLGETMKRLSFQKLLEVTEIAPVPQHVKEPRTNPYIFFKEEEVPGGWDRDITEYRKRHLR
T1 sequence (P45575 2-381): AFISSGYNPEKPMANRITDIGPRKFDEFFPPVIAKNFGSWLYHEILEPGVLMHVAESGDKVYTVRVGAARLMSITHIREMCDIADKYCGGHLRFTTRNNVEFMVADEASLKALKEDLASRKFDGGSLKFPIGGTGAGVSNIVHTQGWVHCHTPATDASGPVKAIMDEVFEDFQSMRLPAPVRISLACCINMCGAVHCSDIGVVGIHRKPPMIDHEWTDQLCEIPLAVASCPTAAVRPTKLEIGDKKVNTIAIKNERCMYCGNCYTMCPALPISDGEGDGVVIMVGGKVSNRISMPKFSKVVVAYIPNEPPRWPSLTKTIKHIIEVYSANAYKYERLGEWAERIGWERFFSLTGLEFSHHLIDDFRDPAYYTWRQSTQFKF

## O=S(O)O [sulfite]
[1]
  Km: solved for experimental Km and Vmax under our conditions
[2]
  closed-system in vitro sulfite reduction; sulfite loss and product accumulation: showed consistent loss of sulfite and accumulation of products between replicates
